Reference: ChEMBL document CHEMBL1201862, “PubChem BioAssay data set” (2004)
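Assay format: 96-well plates, 48-hour exposure. GI50 is the concentration that inhibits growth by half.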 Activity calls are given as the source filed them. Cut-off read from the data, not from the text of the source: active = GI50 up to about 1.1 µM and inactive = higher.

Tests used:
Test in all cases: DTP human tumour cell line panel, 48 h
IGROV-1 = system: IGROV-1
NCI-H23 = system: NCI-H23
NCI/ADR-RES = system: NCI/ADR-RES
Hs-578T = system: Hs-578T
Malme-3M = system: Malme-3M
SK-OV-3 = system: SK-OV-3
RXF 393 = system: RXF 393
MDA-MB-435 = system: MDA-MB-435
HCT-116 = system: HCT-116
NCI-H522 = system: NCI-H522
SF-268 = system: SF-268
UACC-257 = system: UACC-257
SN12C = system: SN12C
PC-3 = system: PC-3
T47D = system: T47D
HCT-15 = system: HCT-15
HCC 2998 = system: HCC 2998
NCI-H460 = system: NCI-H460
K562 = system: K562

SMILES | GI50 (IGROV-1) | GI50 (NCI-H23) | GI50 (NCI/ADR-RES) | GI50 (Hs-578T) | GI50 (Malme-3M) | GI50 (SK-OV-3) | GI50 (RXF 393) | GI50 (MDA-MB-435) | GI50 (HCT-116) | GI50 (NCI-H522) | GI50 (SF-268) | GI50 (UACC-257) | GI50 (SN12C) | GI50 (PC-3) | GI50 (T47D) | GI50 (HCT-15) | GI50 (HCC 2998) | GI50 (NCI-H460) | GI50 (K562)
COCO[C@@H]1C[C@H]2C(=O)Nc3ccccc3C(=O)N2C1 | 33 µM (inactive) | 51.4 µM (inactive) | 79.1 µM (inactive) | 58.6 µM (inactive) | 40.3 µM (inactive) | > 100 µM (inactive) | 20.6 µM (inactive) | 53.7 µM (inactive) | 85.3 µM (inactive) | 16.2 µM (inactive) | 36.4 µM (inactive) | > 100 µM (inactive) | 88.1 µM (inactive) | 43.8 µM (inactive) | 69.2 µM (inactive) | > 100 µM | – | – | –
O=c1ccc2c(Cl)cccc2o1 | > 100 µM (inactive) | > 100 µM (inactive) | > 100 µM (inactive) | 75.5 µM (inactive) | > 100 µM (inactive) | – | > 100 µM (inactive) | > 100 µM (inactive) | > 100 µM (inactive) | > 100 µM (inactive) | > 100 µM (inactive) | > 100 µM (inactive) | > 100 µM (inactive) | > 100 µM (inactive) | 46.7 µM (inactive) | – | 3.74 µM (inactive) | > 100 µM (inactive) | > 100 µM (inactive)
Cc1cc(C)n(CN(CCCCO)Cn2nc(C)cc2C)n1 | 26.9 µM (inactive) | 24.3 µM (inactive) | 18.2 µM (inactive) | > 100 µM (inactive) | 22.9 µM (inactive) | > 100 µM (inactive) | 18.8 µM (inactive) | 19.4 µM (inactive) | 20 µM (inactive) | 23.8 µM (inactive) | 25.6 µM (inactive) | 25.5 µM (inactive) | 26 µM (inactive) | 20.2 µM (inactive) | 25.6 µM (inactive) | 17.5 µM | – | 52.7 µM (inactive) | 19.9 µM (inactive)
O=C(/C=C/c1ccc(F)c(F)c1)OCCc1ccccc1 | > 100 µM (inactive) | 72.9 µM (inactive) | > 100 µM (inactive) | > 100 µM (inactive) | > 100 µM (inactive) | > 100 µM (inactive) | – | > 100 µM (inactive) | 74.5 µM (inactive) | 38.6 µM (inactive) | > 100 µM (inactive) | > 100 µM (inactive) | > 100 µM (inactive) | > 100 µM (inactive) | 72.4 µM (inactive) | 58.5 µM | > 100 µM (inactive) | > 100 µM (inactive) | 51.3 µM (inactive)
c1ccc(CN2CCCN3CCN(CCCN(Cc4ccccc4)CC3)CC2)cc1 | 60 µM (inactive) | 34.1 µM (inactive) | > 100 µM (inactive) | > 100 µM (inactive) | 0.227 µM (active) | > 100 µM (inactive) | > 100 µM (inactive) | 32.7 µM (inactive) | 35.2 µM (inactive) | 36.1 µM (inactive) | 78.7 µM (inactive) | 22 µM (inactive) | 31.5 µM (inactive) | 30.5 µM (inactive) | 35.7 µM (inactive) | > 100 µM | – | 39.4 µM (inactive) | 32 µM (inactive)
C(=N\Nc1nnc(-c2nnc(N/N=C/c3ccccc3)o2)o1)/c1ccccc1 | > 10 µM (inactive) | > 10 µM (inactive) | > 10 µM (inactive) | 6.19 µM (inactive) | > 10 µM (inactive) | – | > 10 µM (inactive) | > 10 µM (inactive) | > 10 µM (inactive) | – | > 10 µM (inactive) | > 10 µM (inactive) | > 10 µM (inactive) | > 10 µM (inactive) | > 10 µM (inactive) | > 10 µM | > 10 µM (inactive) | > 10 µM (inactive) | > 10 µM (inactive)
O=C(/C=C/c1cc(O)c(O)cc1O)OCCc1ccccc1 | 23.1 µM (inactive) | 24.2 µM (inactive) | 27.2 µM (inactive) | 39.5 µM (inactive) | 13.6 µM (inactive) | 26.8 µM (inactive) | – | 20.2 µM (inactive) | > 41.7 µM (inactive) | 2.28 µM (inactive) | 19 µM (inactive) | 34.8 µM (inactive) | 15.6 µM (inactive) | 17.3 µM (inactive) | 4.4 µM (inactive) | 22.2 µM | > 72.1 µM (inactive) | 34.5 µM (inactive) | 2.28 µM (inactive)
O=C(NNC(=O)c1ccccc1O)c1cccs1 | 30.7 µM (inactive) | – | 27.8 µM (inactive) | > 100 µM (inactive) | 22.1 µM (inactive) | 24.4 µM (inactive) | > 100 µM (inactive) | > 100 µM (inactive) | 42.1 µM (inactive) | 3.51 µM (inactive) | 19 µM (inactive) | > 100 µM (inactive) | > 100 µM (inactive) | 47.5 µM (inactive) | > 100 µM (inactive) | 47.8 µM | – | 56.9 µM (inactive) | > 100 µM (inactive)
NC(=O)NC1C(c2ccccc2)=C1c1ccccc1 | 12.7 µM (inactive) | 21.2 µM (inactive) | 10.5 µM (inactive) | 27.6 µM (inactive) | 21.1 µM (inactive) | 15.6 µM (inactive) | 3.41 µM (inactive) | 18.7 µM (inactive) | 15.7 µM (inactive) | – | 13.4 µM (inactive) | 18.6 µM (inactive) | 13.6 µM (inactive) | 17.1 µM (inactive) | 69.5 µM (inactive) | 13.6 µM | 16.5 µM (inactive) | 15.5 µM (inactive) | 15.4 µM (inactive)
Nc1ccc(S2(c3ccc(N)cc3)C=C(c3ccccc3)C(c3ccccc3)=C2)cc1 | > 100 µM (inactive) | > 47.2 µM (inactive) | > 35.1 µM (inactive) | > 100 µM (inactive) | > 100 µM (inactive) | > 26.9 µM (inactive) | > 26.9 µM (inactive) | > 35.9 µM (inactive) | > 36 µM (inactive) | – | > 44.5 µM (inactive) | > 54.5 µM (inactive) | > 25.3 µM (inactive) | > 25.2 µM (inactive) | > 100 µM (inactive) | > 54.2 µM | > 54 µM (inactive) | > 22.4 µM (inactive) | > 46.9 µM (inactive)
N#Cc1cc(-c2nc3ccc(F)cc3s2)ccc1N | 3.27 µM (inactive) | > 100 µM (inactive) | > 100 µM (inactive) | > 100 µM (inactive) | 35.3 µM (inactive) | 21.8 µM (inactive) | > 100 µM (inactive) | 17.7 µM (inactive) | 33.5 µM (inactive) | > 100 µM (inactive) | > 100 µM (inactive) | > 100 µM (inactive) | > 100 µM (inactive) | > 100 µM (inactive) | > 100 µM (inactive) | 87.7 µM | – | > 100 µM (inactive) | 80.4 µM (inactive)
O=C(C=P(c1ccccc1)(c1ccccc1)c1ccccc1)c1ccc(-c2ccc(F)cc2F)cc1 | – | 3.22 µM (inactive) | 3.09 µM (inactive) | 3.97 µM (inactive) | 2.72 µM (inactive) | 2.83 µM (inactive) | 2.64 µM (inactive) | 2.28 µM (inactive) | 2.87 µM (inactive) | – | 4.03 µM (inactive) | 2.72 µM (inactive) | 2.31 µM (inactive) | 3.38 µM (inactive) | 2.33 µM (inactive) | 2.29 µM | 2.08 µM (inactive) | 1.86 µM (inactive) | 2.18 µM (inactive)
O=C(O)C(Cc1c[nH]cn1)N1C(=O)c2ccccc2C1=O (centres undefined) | > 100 µM (inactive) | > 100 µM (inactive) | > 100 µM (inactive) | > 100 µM (inactive) | 18.9 µM (inactive) | – | > 100 µM (inactive) | > 100 µM (inactive) | > 100 µM (inactive) | > 100 µM (inactive) | > 100 µM (inactive) | > 100 µM (inactive) | > 100 µM (inactive) | 18.9 µM (inactive) | > 100 µM (inactive) | > 100 µM | – | > 100 µM (inactive) | > 100 µM (inactive)
C/C(=N\c1c2ccccc2nc2ccccc12)N(C)C | 23.9 µM (inactive) | 15.2 µM (inactive) | 16.3 µM (inactive) | 22 µM (inactive) | 32.9 µM (inactive) | 22.8 µM (inactive) | 23.8 µM (inactive) | 22.5 µM (inactive) | 10.4 µM (inactive) | 10.7 µM (inactive) | 27.4 µM (inactive) | 16.9 µM (inactive) | – | 14.6 µM (inactive) | 20.5 µM (inactive) | 28.6 µM | – | – | 3.91 µM (inactive)
O=[N+]([O-])c1ccc(C2=NOC(c3ccccc3)N2C23CC4CC(CC(C4)C2)C3)cc1 (centres undefined) | 24.8 µM (inactive) | 41 µM (inactive) | 35.8 µM (inactive) | 19.5 µM (inactive) | 25.1 µM (inactive) | 43.2 µM (inactive) | – | 21.8 µM (inactive) | 22.1 µM (inactive) | 19 µM (inactive) | 59.6 µM (inactive) | 47.8 µM (inactive) | 46 µM (inactive) | 20.5 µM (inactive) | 25.7 µM (inactive) | 29.8 µM | 39 µM (inactive) | 19.3 µM (inactive) | 19.1 µM (inactive)
NC(CC(=O)Nc1cc(C(F)(F)F)ccc1Cl)=NO | > 100 µM (inactive) | > 100 µM (inactive) | > 100 µM (inactive) | > 100 µM (inactive) | > 100 µM (inactive) | > 100 µM (inactive) | > 100 µM (inactive) | > 100 µM (inactive) | > 100 µM (inactive) | > 100 µM (inactive) | > 100 µM (inactive) | > 100 µM (inactive) | > 100 µM (inactive) | > 100 µM (inactive) | > 100 µM (inactive) | > 100 µM | – | > 100 µM (inactive) | > 100 µM (inactive)
